Experimental data: the NIST ThermoML archive (doi:10.1021/je7003758)
± gives the expanded uncertainty stated by the source.

Details: Liquid

CN1CCCC1=O [N-methylpyrrolidone]
mass density [kg/m3]
Details | 288.15 K | 298.15 K | 308.15 K | 318.15 K
100 kPa | 1036.8 ± 0.3 | 1028 ± 0.3 | 1019.3 ± 0.3 | 1011 ± 0.3
500 kPa | 1036.9 ± 0.3 | 1028.1 ± 0.3 | 1019.5 ± 0.3 | 1011.1 ± 0.3
1000 kPa | 1037.2 ± 0.3 | 1028.4 ± 0.3 | 1019.8 ± 0.3 | 1011.4 ± 0.3
1500 kPa | 1037.4 ± 0.3 | 1028.7 ± 0.3 | 1020 ± 0.3 | 1011.7 ± 0.3
2000 kPa | 1037.7 ± 0.3 | 1028.9 ± 0.3 | 1020.3 ± 0.3 | 1012.1 ± 0.3
2500 kPa | 1037.9 ± 0.3 | 1029.2 ± 0.3 | 1020.6 ± 0.3 | 1012.4 ± 0.3
3000 kPa | 1038.2 ± 0.3 | 1029.4 ± 0.3 | 1020.9 ± 0.3 | 1012.7 ± 0.3
3500 kPa | 1038.4 ± 0.3 | 1029.7 ± 0.3 | 1021.1 ± 0.3 | 1012.9 ± 0.3
4000 kPa | 1038.7 ± 0.3 | 1030 ± 0.3 | 1021.4 ± 0.3 | 1013.2 ± 0.3
4500 kPa | 1038.9 ± 0.3 | 1030.2 ± 0.3 | 1021.6 ± 0.3 | 1013.5 ± 0.3
5000 kPa | 1039.2 ± 0.3 | 1030.5 ± 0.3 | 1021.8 ± 0.3 | 1013.8 ± 0.3
5500 kPa | 1039.4 ± 0.3 | 1030.7 ± 0.3 | 1022.2 ± 0.3 | 1014 ± 0.3
5900 kPa | – | 1031 ± 0.3 | – | –
6000 kPa | 1039.6 ± 0.3 | – | 1022.4 ± 0.3 | 1014.4 ± 0.3
6400 kPa | – | – | 1022.6 ± 0.3 | –
6500 kPa | 1039.9 ± 0.3 | 1031.3 ± 0.3 | – | 1014.6 ± 0.3
6900 kPa | – | 1031.5 ± 0.3 | – | –
7000 kPa | 1040.2 ± 0.3 | – | – | 1014.9 ± 0.3
7100 kPa | – | – | 1023 ± 0.3 | –
7500 kPa | 1040.4 ± 0.3 | 1031.8 ± 0.3 | 1023.1 ± 0.3 | 1015.2 ± 0.3
8000 kPa | 1040.7 ± 0.3 | 1032 ± 0.3 | – | 1015.5 ± 0.3
8100 kPa | – | – | 1023.5 ± 0.3 | –
8500 kPa | 1041 ± 0.3 | 1032.3 ± 0.3 | 1023.7 ± 0.3 | 1015.8 ± 0.3
9000 kPa | 1041.2 ± 0.3 | 1032.5 ± 0.3 | 1024 ± 0.3 | 1016 ± 0.3
9500 kPa | 1041.4 ± 0.3 | – | 1024.3 ± 0.3 | 1016.3 ± 0.3
9600 kPa | – | 1032.9 ± 0.3 | – | –
10000 kPa | 1041.7 ± 0.3 | 1033.1 ± 0.3 | 1024.6 ± 0.3 | 1016.6 ± 0.3
10400 kPa | – | – | 1024.8 ± 0.3 | –
10500 kPa | 1042 ± 0.4 | 1033.3 ± 0.3 | – | 1016.9 ± 0.3
11000 kPa | 1042.2 ± 0.4 | 1033.6 ± 0.3 | – | 1017.3 ± 0.3
11100 kPa | – | – | 1025.1 ± 0.3 | –
11400 kPa | – | – | – | 1017.6 ± 0.3
11500 kPa | 1042.5 ± 0.4 | 1033.8 ± 0.3 | 1025.3 ± 0.3 | –
12000 kPa | – | 1034.1 ± 0.3 | 1025.5 ± 0.3 | 1017.8 ± 0.3
12100 kPa | 1042.7 ± 0.4 | – | – | –
12500 kPa | 1042.9 ± 0.4 | 1034.3 ± 0.3 | 1025.8 ± 0.3 | 1018 ± 0.3
12900 kPa | – | – | – | 1018.3 ± 0.3
13000 kPa | 1043.1 ± 0.4 | 1034.6 ± 0.3 | 1026 ± 0.3 | –
13500 kPa | 1043.4 ± 0.4 | 1034.8 ± 0.3 | 1026.3 ± 0.3 | 1018.5 ± 0.3
14000 kPa | 1043.6 ± 0.4 | 1035.1 ± 0.3 | 1026.5 ± 0.3 | 1018.8 ± 0.3
14400 kPa | – | 1035.3 ± 0.4 | – | –
14500 kPa | 1043.8 ± 0.4 | – | 1026.8 ± 0.3 | 1019.1 ± 0.3
14900 kPa | – | 1035.5 ± 0.4 | – | –
15000 kPa | 1044.1 ± 0.4 | – | 1027 ± 0.3 | 1019.4 ± 0.3
15500 kPa | 1044.3 ± 0.4 | 1035.8 ± 0.4 | 1027.3 ± 0.3 | 1019.7 ± 0.3
16000 kPa | 1044.5 ± 0.4 | 1036 ± 0.4 | 1027.5 ± 0.3 | 1019.9 ± 0.3
16500 kPa | 1044.8 ± 0.4 | 1036.3 ± 0.4 | 1027.7 ± 0.3 | 1020.2 ± 0.3
17000 kPa | 1045 ± 0.4 | 1036.5 ± 0.4 | 1028 ± 0.3 | 1020.4 ± 0.3
17500 kPa | 1045.2 ± 0.4 | 1036.7 ± 0.4 | 1028.3 ± 0.3 | 1020.7 ± 0.3
17900 kPa | – | 1037 ± 0.4 | – | –
18000 kPa | 1045.4 ± 0.4 | – | 1028.5 ± 0.3 | 1021 ± 0.3
18500 kPa | – | 1037.2 ± 0.4 | 1028.7 ± 0.3 | 1021.3 ± 0.3
18600 kPa | 1045.7 ± 0.4 | – | – | –
19000 kPa | 1046 ± 0.4 | 1037.4 ± 0.4 | 1029 ± 0.3 | 1021.5 ± 0.3
19500 kPa | 1046.2 ± 0.4 | 1037.7 ± 0.4 | 1029.2 ± 0.4 | –
19600 kPa | – | – | – | 1021.9 ± 0.3
20000 kPa | 1046.4 ± 0.4 | 1037.9 ± 0.4 | 1029.4 ± 0.4 | 1022 ± 0.3
